This note sets out measurements from patent US20220009914A1, “Analogs of Nitrofuran Antibiotics to Combat Resistance” (The Trustees of Indiana University, priority 2020, published 2022).

The test system of test [1] is Pseudomonas aeruginosa strain NCTC 10332 (ATCC #10145). The test is described as follows: bacterial proliferation assay, P. aeruginosa. The note with it: read-out: Bacterial Proliferation EC50 P. aeruginosa. It counts as cell-based. As to the method:
(§1) All compounds were evaluated for inhibiting the proliferation of E. coli and each of the ESKAPE bacteria. Results presented represent the averages of EC50 values obtained from at least four replicates. Evaluating compounds for inhibition of bacterial cell proliferation.
(§2) Growth Media: E. coli were grown with LB medium and all ESKAPE bacteria were grown in Brain Heart Infusion (BHI) medium (Becton, Dickinson and Company), with all liquid cultures supplemented with 25 mg/L Ca^2+ and 12.5 mg/L Mg^2+ to mimic physiological free concentrations of these cations. A 10 mg/mL Ca^2+ stock solution was prepared by dissolving 1.84 g of CaCl2.2H2O in 50 mL of deionized water, and a 10 mg/mL Mg^2+ stock solution was prepared by dissolving 4.18 g of MgCl2.6H2O in 50 mL deionized water—filter sterilized using 0.2 μm cellulose-acetate filters. 2.5 mL of the sterile 10 mg/mL Ca^2+ stock and 1.25 mL of the sterile 10 mg/mL Mg^2+ stock solutions were added per 1 L of autoclaved LB or BHI media to obtain 25 mg/L Ca^2+ and 12.5 mg/L Mg^2+ ions, respectively.
(§3) General Assay Protocol: Stock bacterial cultures were streaked onto LB or BHI agar plates and grown overnight at 37° C. Fresh aliquots of cation supplemented media were inoculated with single bacterial colonies and the cultures were grown overnight at 37° C. with shaking (240 rpm). The following morning, cultures were diluted 10-fold into fresh media and grown at 37° C. until bacteria had reached mid-log phase growth (OD600˜0.4-0.6). The cultures were then diluted into fresh media to achieve final OD600 readings of 0.017. Aliquots of these diluted cultures (30 μL) were added to clear, flat-bottom 384-well polystyrene plates that were previously stamped with 0.5 μL of test compounds in 20 μL of media (yielding initial OD600=0.01 bacterial cultures). All compounds were tested in dose-response with concentration ranges during the proliferation assays from 100 μM to 46 nM (3-fold dilution series). A second set of baseline control plates were prepared analogously, but without any bacteria added, to correct for possible compound absorbance and/or precipitation. […] Plates were then read at 600 nm using a Molecular Devices SpectraMax Plus384 microplate reader. […] Results presented represent the averages of EC50 values obtained from at least four replicates.
(§4) Evaluating analogs for inhibiting the growth of E. coli and the ESKAPE bacteria. Analogs were initially tested for antibacterial efficacy against representative strains of antibiotic-sensitive E. coli and the ESKAPE bacteria. To determine compound efficacy, bacterial proliferation assays were carried out in liquid media culture supplemented with physiological concentrations of free calcium and magnesium cations. For these assays, bacterial cultures (OD600=0.01) were exposed to test compounds in 8-point, 3-fold dilution series (100 μM to 46 nM concentration range), in 384-well plates. After addition of compounds to cultures, the plates were sealed with Breathe-Easy gas permeable membranes and allowed to grow to mid-log phase (OD600˜0.4-0.6), whereupon final OD600 readings were taken to assess for bacterial growth and inhibition.

In test [2] the test system is Klebsiella pneumoniae strain NCTC 9633 (ATCC #13883). As to the kind of experiment: bacterial proliferation assay, K. pneumoniae. It counts as cell-based. Particulars: Klebsiella pneumoniae, read-out: Bacterial Proliferation EC50 K. pneumoniae. As to the method:
as §1, §2, §3, §4

A further test has as its target T1, E. coli GroEL/ES (Escherichia coli, UniProt P0A6F5).
T1 construct: made in house; host or cells: GroEL in NEB 5-alpha E. coli; GroES in E. coli BL21 (DE3)
The test is described as follows: GroEL/ES-mediated dMDH refolding assay. It counts as biochemical. As to the method:
Evaluating compounds for inhibition in the GroEL/ES-mediated dMDH refolding assay. All compounds were evaluated for inhibiting E. coli GroEL/ES-mediated refolding of the denatured MDH reporter enzyme. Reagent preparation: For these assays, four primary reagent stocks were prepared: 1) GroEL/ES-dMDH binary complex stock; 2) ATP initiation stock; 3) EDTA quench stock; 4) MDH enzymatic assay stock. Denatured MDH (dMDH) was prepared by 2-fold dilution of MDH (5 mg/ml, soluble pig heart MDH from Roche, product #10127248001) with denaturant buffer (7 M guanidine-HCl, 200 mM Tris, pH 7.4, and 50 mM DTT). MDH was completely denatured by incubating at room temperature for >45 min. The binary complex solutions were prepared by slowly adding the dMDH stock to a stirring stock with GroEL and GroES in folding buffer (50 mM Tris-HCl, pH 7.4, 50 mM KCl, 10 mM MgC2, and 1 mM DTT). […] For the ATP initiation stock, ATP solid was diluted into folding buffer to a final concentration of 2.5 mM. Quench solution contained 600 mM EDTA (pH 8.0). The MDH enzymatic assay stock consisted of 20 mM sodium mesoxalate and 1.6 mM NADH in reaction buffer (50 mM Tris-HCl, pH 7.4, 50 mM KCl, and 1 mM DTT).
Assay Protocol: First, 30 μL aliquots of the GroEL/ES-dMDH binary complex stocks were dispensed into clear, 384-well polystyrene plates. […] The chaperonin-mediated refolding cycles were initiated by addition of 20 μL of ATP stock (reagent concentrations during refolding cycle: 50 nM GroEL, 60 nM GroES, 12 nM dMDH, 1 mM ATP, and compounds of 100 μM to 46 nM, 3-fold dilution series) and the refolding reactions were incubated at 37° C. […] Next, the assay was quenched by addition of 10 μL of the EDTA stock to give a final concentration of 100 mM in the wells. […] A340 nm measurements were recorded at 0.5 minutes (start point) and at successive time points until the amount of NADH consumed reached ˜90% (end point, generally between 20-35 minutes).
Evaluating analogs for inhibiting GroEL/ES-mediated substrate refolding functions. […] We first evaluated all test compounds in our standard GroEL/ES-mediated refolding assays that employ either malate dehydrogenase (MDH) or rhodanese (Rho) as the denatured substrate reporter enzymes. When denatured, these enzymes are efficiently folded by GroEL/ES in the absence of inhibitors, and thus act as reporters to determine the degree of inhibition against the bacterial chaperonin system. Inhibition was examined in the presence of these two orthogonal substrates in order to support that GroEL/ES inhibitors were on-target. To further support on-target effects against GroEL/ES, we counter-screened for inhibition of the native MDH and Rho enzymatic reporter reactions, where test compounds were added after the denatured MDH and Rho substrate enzymes were completely refolded by GroEL/ES.

[3] abbreviates: without NfsB nitroreductase, read-out: GroEL/ES-dMDH Refolding IC50.

Each structure is given as a SMILES string. Read-outs that look alike come from different tables or passages of the source.

T1 sequence (P0A6F5 2-548): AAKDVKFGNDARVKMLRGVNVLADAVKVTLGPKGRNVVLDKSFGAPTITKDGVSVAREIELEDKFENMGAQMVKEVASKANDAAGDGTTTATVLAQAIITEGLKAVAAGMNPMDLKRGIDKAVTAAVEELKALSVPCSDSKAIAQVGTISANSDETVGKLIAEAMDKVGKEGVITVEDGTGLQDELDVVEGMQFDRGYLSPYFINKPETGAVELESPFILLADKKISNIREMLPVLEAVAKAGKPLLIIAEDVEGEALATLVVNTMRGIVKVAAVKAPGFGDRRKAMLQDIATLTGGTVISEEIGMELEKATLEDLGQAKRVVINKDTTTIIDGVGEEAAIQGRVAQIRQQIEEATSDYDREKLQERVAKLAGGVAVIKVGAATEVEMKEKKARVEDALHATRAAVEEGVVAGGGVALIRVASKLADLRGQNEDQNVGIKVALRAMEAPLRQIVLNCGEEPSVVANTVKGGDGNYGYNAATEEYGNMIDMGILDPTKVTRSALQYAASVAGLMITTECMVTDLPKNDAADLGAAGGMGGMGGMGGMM

`COc1ccc(C(=O)N/N=C/c2ccc([N+](=O)[O-])o2)cc1` [Compound 20, 4-methoxy-N′-((5-nitrofuran-2-yl)methylene)benzohydrazide]: the EC50 in test [1] and in test [2] was above 100 µM in each case. Also, the IC50 at E. coli GroEL/ES (setting [3]) was 69 µM.
As to `CCOc1ccc(S(=O)(=O)Nc2ccc(C(=O)N/N=C/c3ccc([N+](=O)[O-])o3)cc2)cc1` [Compound 28, 4-ethoxy-N-(4-(2-((5-nitrofuran-2-yl)methylene)hydrazine-1-carbonyl)phenyl)benzenesulfonamide], the EC50 in test [1] and in test [2] was above 100 µM throughout. For the same molecule, the IC50 on E. coli GroEL/ES stood at 36 µM.
In the case of `O=C(N/N=C/c1cccc2ccccc12)c1ccccc1` [Compound 34, N′-(naphthalen-1-ylmethylene)benzohydrazide], the EC50 in test [1] and in test [2] was above 100 µM throughout. Besides, the IC50 against E. coli GroEL/ES is above 100 µM.
For the molecule `CN(C)c1ccc(C(=O)N/N=C/c2ccc([N+](=O)[O-])o2)cc1` [Compound 21, 4-(dimethylamino)-N′-((5-nitrofuran-2-yl)methylene)benzohydrazide], the EC50 in test [1] and in test [2] was above 100 µM in each case. Also, at E. coli GroEL/ES (standard dMDH and dRho refolding assays, no nitroreductase), the “GroEL/ES inhibition in words” value is “generally the most potent GroEL/ES inhibitors”. The IC50 on E. coli GroEL/ES (setting [3]) amounted to 26 µM.
